{"source": "patent US8481678B2", "about": "“Peptide-based tooth whitening reagents” (E I du Pont de Nemours and Company, priority 2009, dated 2013)", "note": "Where no end group is shown, it is not given here. The star is where a group is joined. Biotin = O=C1N[C@H]2[C@H](CS[C@H]2CCCCC(=O)*)N1"}
{"tested_on": "not listed separately", "assay": "Phage ELISA, polished enamel-binding assay", "parameters": "species or system bovine", "details": "phage ELISA on polished enamel, over 10^10 pfu phage; no-phage control 0.112", "protocol": "(§1) A total of 11 selected phage candidates (Example 3) were used in a phage ELISA experiment. Purified phage lysates were used for binding to the enamel blocks using an anti-M13 phage antibody conjugated to horseradish-peroxidase, followed by the addition of chromogenic agent TMB, obtained from Pierce Biotechnology (Rockford, Ill.). The plates were read at A450 nm.\n(§2) For each phage candidate to be tested, the polished and unpolished enamel blocks were incubated for 1 h at room temperature with 200 μL of blocking buffer, consisting of 2% non-fat dry milk (Schleicher & Schuell, Inc.) in TBS. […] The tube was rinsed 6 times with wash buffer consisting of TBST-0.05%. The wells were filled with 200 μL of TBST-0.5% containing 1 mg/mL BSA and then 10 μL (over 10^10 pfu) of purified phage stock was added. The samples were incubated at room temperature for 60 min with slow shaking. The non-binding phage was removed by washing 6 times with TBST-0.5%. […] The conjugate solution was removed and was washed 6 times with TBST-0.5%. […] “BoEn P” means bovine polished enamel and BoEn means bovine enamel."}
{"substance": "EPPTRTRVNNHTVTVQAQQH (Tooth-binding peptide) [BoEn P2]", "O.D. at 450 nm": 0.641}
{"substance": "NFCETQLDLSVCTV (Tooth-binding peptide) [BoEn P5]", "O.D. at 450 nm": 0.797}
{"substance": "GYCLRGDEPAVCSG (Tooth-binding peptide) [BoEn P3]", "O.D. at 450 nm": 0.665}
{"substance": "NTCQPTKNATPCSA (Tooth-binding peptide) [BoEn P6]", "O.D. at 450 nm": 0.83}
{"substance": "THNMSHFPPSGHPKRTAT (Tooth-binding peptide) [BoEn P8]", "O.D. at 450 nm": 2.02}
{"tested_on": "not listed separately", "assay": "Phage ELISA, tooth enamel-binding assay (unpolished enamel blocks)", "parameters": "species or system bovine", "details": "phage ELISA on unpolished enamel, over 10^10 pfu phage; no-phage control 0.193", "protocol": "as §1, §2"}
{"substance": "VGTMKQHPTTTQPPRVSATN (Tooth-binding peptide) [BoEn 9]", "O.D. at 450 nm": 0.568}
{"substance": "AANPHTEWDRDAFQLAMPPK (Tooth-binding peptide) [BoEn 1]", "O.D. at 450 nm": 1.402}
{"substance": "LNDQRKPGPPTMPTHSPAVG (Tooth-binding peptide) [BoEn 5]", "O.D. at 450 nm": 0.944}
{"substance": "YSETPNDQKPNPHYKVSGTK (Tooth-binding peptide) [BoEn 10]", "O.D. at 450 nm": 3.942}
{"substance": "NTCATSPNSYTCSN (Tooth-binding peptide) [BoEn 6]", "O.D. at 450 nm": 2.38}
{"substance": "SDCTAGLVPPLCAT (Tooth-binding peptide) [BoEn 7]", "O.D. at 450 nm": 0.892}
{"tested_on": "not given", "assay": "not given", "details": "20 μM biotinylated peptide; mean of at least three replicates; no-peptide control 0.066", "description": "Enzyme-linked immunosorbent assay (ELISA) was used to evaluate the cellulose acetate coated iron oxide particle-binding affinity of the biopanning selected peptide candidates (Example 6; biotinylated peptides phage ID: CA-1 to CA-4). The identified peptides were synthesized using a standard solid-phase synthesis method (see U.S. patent application Ser. No. 11/251/715). All peptides were modified to contain a biotinylated lysine residue at the C-terminus of the amino acid binding sequence for detection purposes (Table 6).\nThe cellulose acetate-coated iron oxide particles were dispersed in water at 2.5 mg per mL. […] The particle dispersion (1 mL each) was then centrifuged for 2 min at 5000 rpm, the aqueous was removed by aspirating it out of each tube. The tubes were incubated in SUPERBLOCK® blocking buffer (Pierce Chemical Company, Rockford, Ill.; Prod. #37535) for 1 hour at room temperature (˜22° C.), followed by 3 washes with TBST (TBS in 0.05% TWEEN® 20). Then tubes were then rinsed 3 times with wash buffer consisting of TBST-0.05% using the same centrifugation and aspiration methods. Peptide binding buffer consisting of 20 μM biotinylated peptides in TBST and 1 mg/mL BSA was added to the particles and incubated for 1 hour at room temperature (˜22° C.), followed by 6 TBST washes. Then, the streptavidin-alkaline phosphatase (AP) conjugate (Pierce Chemical Co., Rockford, Ill.) was added to each well at standard concentration and incubated for 1 hour at room temperature, followed by 6 times of washes with TBST. All particles were then transferred to new tubes and then the color development and the absorbance measurements were performed following the manufacturer's standard protocols."}
{"substance": "DTIHPNKMKSPSSPL-K-biotin-NH2 [CA-2]", "O.D. at 405 nm": 0.207}
{"substance": "SDETGPQIPHRRPTW-K-biotin-NH2 [CA-4]", "O.D. at 405 nm": 0.141}
{"substance": "ATTPPSGKAAAHSAARQKGN-K-biotin-NH2 [CA-1]", "O.D. at 405 nm": 0.269}
{"substance": "NGNNHTDIPNRSSYTGGSFA-K-biotin-NH2 [CA-3]", "O.D. at 405 nm": 0.279}
{"tested_on": "pellicle-coated enamel substrates", "assay": "not given", "details": "20 μM synthetic biotinylated peptide, 30 min at 37° C.; normalized to DenP03; three replicates; no peptide −0.001", "protocol": "A total of 20 synthetic peptides were manufactured using sequences obtained from Table 14. Peptides were obtained from Synbiosci (Livermore, Calif.) and included an additional SSRP sequence (SEQ ID NO: 151) at the N-terminus and biotin labeled lysine at the C-terminus.\nEnamel substrates were cut to approx. 7 mm squares and mounted on wax mounting for incubation in the mouth for 30 min to form a pellicle coated surface. The pellicle-coated enamel substrates were removed from the wax backing and placed in well plates with the pellicle surface exposed as in Example 1. Each pellicle-coated substrate was incubated for 1 h at room temperature (˜22° C.) with 1 mL of blocking buffer, consisting of 1 mg/mL BSA in PBST (Pierce BupH™ #28372 with 0.1% TWEEN® 20). The blocking buffer was removed by aspirating the liquid out of each well. The tube was rinsed 2 times with wash buffer consisting of PBST. The wells were filled with 500 μL of 20 μM peptide solution which was prepared by diluting in blocking buffer. The samples were incubated for 30 min with slow shaking at 37° C. The non-binding peptide was removed by washing 6 times with PBST. Then, 500 μL of horseradish peroxidase/streptavidin conjugate (Pierce #22127), diluted 1:2000 in PBST, was added and incubated for 1 h at room temperature. The conjugate solution was removed and was washed 4 times with PBST.\nEach enamel substrate was removed from the well and washed again in a 15-mL test tube with 10 mL of PBST. Each enamel substrate was then mounted in a clean well plate with only the enamel surface exposed. A 1:1 solution of TMB substrate and H2O2 (200 μL), obtained from Pierce Biotechnology (Rockford, Ill.) was added to each well and the color was allowed to develop for between 10 to 20 min, typically for 15 min, at room temperature (˜22° C.). Then, 100 μL of solution from each well was transferred to a 96-well reading plate containing stop solution (100 μL of 2 M H2SO4) in each well. The A450 was measured using a microplate spectrophotometer (Molecular Devices, Sunnyvale, Calif.). […] Each sequence was tested with three replicate enamel coated pellicle substrates."}
{"substance": "SSRPHKNENIMQYNVNDRWHITPAK(Biotin) [DenP32-A]", "O.D. at 450 nm (normalized)": 1.135}
{"substance": "SSRPTTYHYKNIYQESYQQRNPAVK(Biotin) [DenP3-A]", "O.D. at 450 nm (normalized)": 1.000}
{"tested_on": "pellicle-coated enamel substrates", "assay": "not given", "details": "range of peptide concentrations, 2 h at 37° C., 4-MUP fluorescence; calculated from Scatchard plots", "description": "The pellicle-coated enamel substrates were removed from the wax backing and placed in well plates with the pellicle surface exposed as in Example 1. […] The blocking buffer was removed by aspirating the liquid out of each well. The tube was rinsed 2 times with wash buffer consisting of PBST. […] The non-binding peptide was removed by washing 6 times with PBST. […] The conjugate solution was removed and was washed 4 times with PBST.\nEach enamel substrate was removed from the well and washed again in a 15-mL test tube with 10 mL of PBST. Each enamel substrate was then mounted in a clean well plate with only the enamel surface exposed.", "units": {"MB50": "µM"}}
{"substance": "SSRPHKNENIMQYNVNDRWHITPAK(Biotin) [DenP32-A]", "MB50": 25}
{"substance": "SSRPTTYHYKNIYQESYQQRNPAVK(Biotin) [DenP3-A]", "MB50": 28}
